From US8268827B2, “Pyridazinone derivatives as PARP inhibitors” (Istituto di Ricerche di Biologia Molecolare P. Angeletti …, priority 2007, dated 2012)
Structures can show the parent of a compound that is named as a salt.

These molecules were tested on BRCA-1 silenced HeLa cells (HeLa shBRCA1-GFP) (assay: Proliferation assay in BRCA-1 silenced HeLa cells). Conditions: Homo sapiens; BRCA1 silenced HeLa cells, 168 hours; read-out: CC50 in the BRCA1 silenced HeLa cells.
Format: cell-based
Description: Proliferation Assay in BRCA-1 Silenced HeLa Cells
Compounds of the present invention were also tested in an anti-proliferative assay in matched pair BRCA1 wt and BRCA1-(shRNA) HeLa cells.
The assay is based on the ability of living cells to convert a redox dye (resazurin) into a fluorescent end product (resofurin). The amount of resofurin produced is directly proportional to the cell number.
HeLa shBRCA1-GFP—These are HeLa cells transduced at an MOI of 100 with a Lentivirus containing a shRNA against BRCA-1 and an expression cassette for GFP. BRCA-1 silencing is more than 80% as assessed by Taqman analysis and the cells stably express GFP.
HeLa THM-GFP—These are HeLa cells transduced at an MOI of 100 with a control vector not expressing any shRNA.
• Seed 300 cell/well in 96 wells viewplate black in 90 ul culture Medium*: • Incubate 4 hours at 37° C., 5% CO2 • Add 10 ul/well of 10× compound (5% DMSO in H2O) • Incubate for 168 hours at 37° C., 5% CO2 • Add 10 ul of Celltiter Blue solution (Promega, G8081) pre-diluted 1:1 in PBS1× • Incubate the mixture for 45′ at 37° C., 5% CO2 • Incubate 15′ at RT in the dark • Read plate at fluorimeter ex: 550 nm; em: 590 nm *Culture Medium: DMEM (GIBCO, 41966-029), 10% FCS (GIBCO, 10106-169), 0.1 mg/ml Penicillin-Streptomycin (GIBCO, 15140-114), 2 mM L-Glutamine (GIBCO, 3042190)
Cc1c(Cc2ccc(F)c(C(=O)N3CC(=O)N4[C@@H](CCC[C@H]4C)C3)c2)n[nH]c(=O)c1C (racemic) [Example 85, 6-{4-Fluoro-3-[(cis-6-methyl-4-oxooctahydro-2H-pyrido[1,2-a]pyrazin-2-yl)carbonyl]benzyl}-4,5-dimethyl-3-oxo-2,3-dihydropyridazin-1-ium trifluoroacetate] was tested, and the CC50 was less than 50 nM. Cc1c(Cc2ccc(F)c(C(=O)N3CC(=O)N([C@H]4CCOC4)[C@H](C)C3)c2)n[nH]c(=O)c1C (single isomer, unassigned) [75 (II4A)] gave a CC50 of 50 to 500 nM. Cc1c(Cc2ccc(F)c(C(=O)N3CC(=O)N([C@H]4CCOC4)[C@@H](C)C3)c2)n[nH]c(=O)c1C (single isomer, unassigned) [75 (II4B)] gave a CC50 of less than 50 nM. Molecule Cc1c(Cc2ccc(F)c(C(=O)N3CC(=O)N4[C@@H](CCC[C@@H]4C)C3)c2)n[nH]c(=O)c1C (single isomer, unassigned) [86 (TT1)] has a CC50 of less than 50 nM. With Cc1c(Cc2ccc(F)c(C(=O)N3CC(=O)N4[C@H](CCC[C@H]4C)C3)c2)n[nH]c(=O)c1C (single isomer, unassigned) [86 (TT2)] the CC50 was 50 to 500 nM. With C[C@H]1CCC[C@H]2CN(C(=O)c3cc(Cc4cc(C(F)(F)F)c(=O)[nH]n4)ccc3F)CC(=O)N21 (single isomer, unassigned) [88 (VV1)] the CC50 was less than 50 nM. C[C@@H]1CCC[C@@H]2CN(C(=O)c3cc(Cc4cc(C(F)(F)F)c(=O)[nH]n4)ccc3F)CC(=O)N21 (single isomer, unassigned) [88 (VV2)] was tested, and the CC50 was 50 to 500 nM. With Cc1c(Cc2ccc(F)c(C(=O)N3CCN(c4ccccc4)C(=O)C3)c2)n[nH]c(=O)c1C [Example 1, 6-{4-Fluoro-3-[(3-oxo-4-phenylpiperazin-1-yl)carbonyl]benzyl}-4,5-dimethyl-3-oxo-2,3-dihydropyridazin-1-ium trifluoroacetate] the CC50 was less than 50 nM. Cc1c(Cc2ccc(F)c(C(=O)N3CCN(C4CCCCC4)C(=O)C3)c2)n[nH]c(=O)c1C [Example 2, 6-{3-[(4-Cyclohexyl-3-oxopiperazin-1-yl)carbonyl]-4-fluorobenzyl}-4,5-dimethyl-3-oxo-2,3-dihydropyridazin-1-ium trifluoroacetate] showed a CC50 of less than 50 nM. Molecule Cc1c(Cc2ccc(F)c(C(=O)N3CCN(C4CCCC4)C(=O)C3)c2)n[nH]c(=O)c1C [Example 3, 6-{3-[(4-Cyclopentyl-3-oxopiperazin-1-yl)carbonyl]-4-fluorobenzyl}-4,5-dimethylpyridazin-3(2H)-one] has a CC50 of less than 50 nM. CCc1cc(Cc2ccc(F)c(C(=O)N3CCN(c4ccccc4)C(=O)C3)c2)n[nH]c1=O [Example 5, 4-Ethyl-6-{4-fluoro-3-[(3-oxo-4-phenylpiperazin-1-yl)carbonyl]benzyl}pyridazin-3(2H)-one trifluoroacetate] showed a CC50 of 50 to 500 nM. In the case of CCc1cc(Cc2ccc(F)c(C(=O)N3CCN(C4CCCCC4)C(=O)C3)c2)n[nH]c1=O [Example 6, 6-{3-[(4-Cyclohexyl-3-oxopiperazin-1-yl)carbonyl]-4-fluorobenzyl}-4-ethylpyridazin-3(2H)-one trifluoroacetate], the CC50 was 50 to 500 nM. Work on Cc1c(Cc2ccc(F)c(C(=O)N3CCN(Cc4ccc(F)cc4)C(=O)C3)c2)n[nH]c(=O)c1C [Example 8, 3-(4-Fluoro-3-{[4-(4-fluorobenzyl)-3-oxopiperazin-1-yl]carbonyl}benzyl)-4,5-dimethyl-6-oxo-1,6-dihydropyridazin-1-ium trifluoroacetate] yielded a CC50 of less than 5000 nM. For Cc1c(Cc2ccc(F)c(C(=O)N3CCN(c4cccc(Cl)c4)C(=O)C3)c2)n[nH]c(=O)c1C [Example 9, 6-(3-{[4-(3-Chlorophenyl)-3-oxopiperazin-1-yl]carbonyl}-4-fluorobenzyl)-4,5-dimethyl-3-oxo-2,3-dihydropyridazin-1-ium trifluoroacetate], the CC50 was less than 50 nM. For Cc1c(Cc2ccc(F)c(C(=O)N3CCN(c4ccc(F)c(Cl)c4)C(=O)C3)c2)n[nH]c(=O)c1C [Example 10, 6-(3-{[4-(3-Chloro-4-fluorophenyl)-3-oxopiperazin-1-yl]carbonyl}-4-fluorobenzyl)-4,5-dimethyl-3-oxo-2,3-dihydropyridazin-1-ium trifluoroacetate], the CC50 was less than 50 nM. Cc1c(Cc2ccc(F)c(C(=O)N3CCN(c4ccc(F)c(F)c4)C(=O)C3)c2)n[nH]c(=O)c1C [Example 11, 6-(3-{[4-(3,4-Difluorophenyl)-3-oxopiperazin-1-yl]carbonyl}-4-fluorobenzyl)-4,5-dimethyl-3-oxo-2,3-dihydropyridazin-1-ium trifluoroacetate] gave a CC50 of less than 50 nM. Cc1c(Cc2ccc(F)c(C(=O)N3CCN(c4cc(F)cc(F)c4)C(=O)C3)c2)n[nH]c(=O)c1C [Example 12, 6-(3-{[4-(3,5-Difluorophenyl)-3-oxopiperazin-1-yl]carbonyl}-4-fluorobenzyl)-4,5-dimethyl-3-oxo-2,3-dihydropyridazin-1-ium trifluoroacetate] was tested, and the CC50 was less than 50 nM. Cc1c(Cc2ccc(F)c(C(=O)N3CCN(c4ccc(Cl)cc4)C(=O)C3)c2)n[nH]c(=O)c1C [Example 13, 6-(3-{[4-(4-Chlorophenyl)-3-oxopiperazin-1-yl]carbonyl}-4-fluorobenzyl)-4,5-dimethyl-3-oxo-2,3-dihydropyridazin-1-ium trifluoroacetate] was tested, and the CC50 was less than 50 nM. For Cc1c(Cc2ccc(F)c(C(=O)N3CCN(c4ccccc4Cl)C(=O)C3)c2)n[nH]c(=O)c1C [Example 14, 6-(3-{[4-(2-Chlorophenyl)-3-oxopiperazin-1-yl]carbonyl}-4-fluorobenzyl)-4,5-dimethyl-3-oxo-2,3-dihydropyridazin-1-ium trifluoroacetate], the CC50 was 50 to 500 nM. Molecule Cc1c(Cc2ccc(F)c(C(=O)N3CCN(c4ccccc4C(F)(F)F)C(=O)C3)c2)n[nH]c(=O)c1C [Example 15, 6-[4-Fluoro-3-({3-oxo-4-[2-(trifluoromethyl)phenyl]piperazin-1-yl}carbonyl)benzyl]-4,5-dimethyl-3-oxo-2,3-dihydropyridazin-1-ium trifluoroacetate] has a CC50 of less than 50 nM. For Cc1c(Cc2ccc(F)c(C(=O)N3CCN(c4ccc(F)cc4Cl)C(=O)C3)c2)n[nH]c(=O)c1C [Example 16, 6-(3-{[4-(2-Chloro-4-fluorophenyl)-3-oxopiperazin-1-yl]carbonyl}-4-fluorobenzyl)-4,5-dimethyl-3-oxo-2,3-dihydropyridazin-1-ium trifluoroacetate], the CC50 was 50 to 500 nM. CCN1CCN(C(=O)c2cc(Cc3n[nH]c(=O)c(C)c3C)ccc2F)CC1=O [Example 17, 6-{3-[(4-Ethyl-3-oxopiperazin-1-yl)carbonyl]-4-fluorobenzyl}-4,5-dimethylpyridazin-3(2H)-one trifluoroacetate] showed a CC50 of 50 to 500 nM. CCCCN1CCN(C(=O)c2cc(Cc3n[nH]c(=O)c(C)c3C)ccc2F)CC1=O [Example 18, 6-{3-[(4-Butyl-3-oxopiperazin-1-yl)carbonyl]-4-fluorobenzyl}-4,5-dimethylpyridazin-3(2H)-one trifluoroacetate] was tested, and the CC50 was 50 to 500 nM. Work on Cc1cc(C)cc(CN2CCN(C(=O)c3cc(Cc4n[nH]c(=O)c(C)c4C)ccc3F)CC2=O)c1 [Example 19, 6-(3-{[4-(3,5-Dimethylbenzyl)-3-oxopiperazin-1-yl]carbonyl}-4-fluorobenzyl)-4,5-dimethylpyridazin-3(2H)-one trifluoroacetate] yielded a CC50 of 50 to 500 nM. COc1ccc(CN2CCN(C(=O)c3cc(Cc4n[nH]c(=O)c(C)c4C)ccc3F)CC2=O)cc1 [Example 20, 6-(4-Fluoro-3-{[4-(4-methoxybenzyl)-3-oxopiperazin-1-yl]carbonyl}benzyl)-4,5-dimethylpyridazin-3(2H)-one trifluoroacetate] was tested, and the CC50 was 50 to 500 nM. Cc1c(Cc2ccc(F)c(C(=O)N3CCN(CCc4ccccc4)C(=O)C3)c2)n[nH]c(=O)c1C [Example 21, 6-(4-Fluoro-3-{[3-oxo-4-(2-phenylethyl)piperazin-1-yl]carbonyl}benzyl)-4,5-dimethylpyridazin-3(2H)-one trifluoroacetate] gave a CC50 of 50 to 500 nM. COc1cccc(N2CCN(C(=O)c3cc(Cc4n[nH]c(=O)c(C)c4C)ccc3F)CC2=O)c1 [Example 22, 6-(4-Fluoro-3-{[4-(3-methoxyphenyl)-3-oxopiperazin-1-yl]carbonyl}benzyl)-4,5-dimethylpyridazin-3(2H)-one trifluoroacetate] showed a CC50 of 50 to 500 nM. In the case of Cc1cc(C)cc(N2CCN(C(=O)c3cc(Cc4n[nH]c(=O)c(C)c4C)ccc3F)CC2=O)c1 [Example 23, 6-(3-{[4-(3,5-Dimethylphenyl)-3-oxopiperazin-1-yl]carbonyl}-4-fluorobenzyl)-4,5-dimethylpyridazin-3(2H)-one trifluoroacetate], the CC50 was 50 to 500 nM. Work on Cc1c(Cc2ccc(F)c(C(=O)N3CCN(C4CCCCC4)C(=O)C3)c2)n[nH]c(=O)c1C(F)(F)F [Example 25, 3-{3-[(4-Cyclohexyl-3-oxopiperazin-1-yl)carbonyl]-4-fluorobenzyl}-4-methyl-6-oxo-5-(trifluoromethyl)-1,6-dihydropyridazin-1-ium trifluoroacetate] yielded a CC50 of less than 50 nM.
